According to patent publication US12702671B2, “Calcineurin inhibitors of the setron family for the treatment of hearing loss” (SENSORION, priority 2015, dated 2026):
Counter-ions that a name gives are not always drawn.

Assays:
[1] = tested on: acoustic trauma induced hearing loss; test: Auditory brainstem response (ABR) thresholds after acoustic trauma; format: in vivo, Wistar rats
Method: All experiments were performed using 7 week old male Wistar rats (CERJ, Le Genest, France) in accordance with the French Ministry of Agriculture regulations and European Community Council Directive no. 86/609/EEC, OJL 358. The rats were fed a standard diet ad libitum and maintained on a 12 h light-dark cycle.
Auditory Brainstem Reponses (ABR) and Distortion Product Otoacoustic Emissions (DPOAE) were recording using a RZ6 Auditory Workstation (Tucker-Davis Technologies, Alachua, FL, USA) with animals deeply anesthetized using 90 mg/kg ketamine and 10 mg/kg xylazine and placed on a 35° C. recirculating heating pad inside a sound attenuating cubicle (Med Associates Inc., St. Albans, VT, USA) throughout the experiment.
For ABR recordings, three stainless steel needle electrodes were placed subdermally over the vertex, the right mastoid and right hind leg of each animal. Tone-pips (5 msec duration presented at a rate of 21/s) at 8, 16 and 24 kHz were delivered to the right ear using a calibrated MF-1 speaker in closed-field configuration (Tucker-Davis Technologies, Alachua, FL, USA) at attenuating intensity until no reproducible response could be recorded. Close to the ABR threshold, the responses to 1000 acoustic stimuli in 5 dB steps were averaged. Responses were low-pass filtered at 3 kHz.
(§1) Animals were exposed to 121 dB octave band noise (8-16 kHz) for 2 h in groups of 4 rats, placed in individual compartments of a custom built circular cage placed on a 30 cm diameter platform rotating at 3 turns/minute (Aqila Innovation, Valbonne, France). The calibrated octave band noise generated by the RZ6 SigGen software was further amplified by a Crown D-75 amplifier in bridge mode (Crown Audio, Elkhart, IN, USA) and delivered by four Beyma CP16 compression tweeters (Acustica Beyma S. L., Moncada, Valencia, Spain) positioned 39 cm above the rotating platform, each 10 cm from the platform center.
(§2) Animals were treated by intraperitoneal injection daily for 14 days beginning immediately after acoustic trauma induction and subsequently repeated every 24 hours. The setron compounds granisetron HCl, ondansetron HCl, tropisetron HCl and azasetron HCl (Tocris Bioscience, Bristol, UK) were delivered dissolved in saline solution (1.6 mL/kg) while Tacrolimus (Selleck Chemicals, Houston, TX, USA) was dissolved in solution composed of 10% ethanol-100%/10% Kolliphor EL/1% Tween 80/79% saline (1.0 mL/kg). Placebo treated animals received injections of 1.6 mL/kg saline following the same treatment schedule.
(§3) Statistical analysis was performed using two-way ANOVA (Audiometry data: frequency and treatment group. Cochleograms: normalized distance from apex and treatment group) followed by Holm-Sidak post-hoc test for multiple comparisons. Results are given as mean±SEM and a p value less than or equal to 0.05 considered significant.
Baseline line audiometry (ABR and DPOAE measures) was performed for each animal 3 days before acoustic trauma was induced. Subsequently, audiometry measures were repeated 24 h and 14 days after acoustic trauma.
To quantify and compare the difference in treatment effects between groups while taking into account individual baseline and trauma variability, the hearing loss (ABR threshold shift & DPOAE amplitude loss) at D14 relative to baseline, as well as the functional recovery of hearing from 24 h to D14 (ABR threshold shift & DPOAE amplitude loss) were determined for all treatment groups.

[2] = tested on: outer hair cells; test: Outer hair cell loss (cytocochleograms) in cochleae fixed at D14 after acoustic trauma; format: in vivo, Wistar rats
Method: as §1, §2
After audiometry on day 14, animals were deeply anaesthetized with an intraperitoneal injection of pentobarbital (100 mg/kg). The cochleae were removed, fixed with 4% paraformaldehyde, pH 7.4, decalcified with 10% EDTA, pH 7.4 and then stained with myosin VIIa 1/1000. […] The mean loss of OHCs per group was subsequently calculated as a function of normalized distance from the apex in bins of 2.5% of the total length, using the total length of each histological specimen. Cell counts could reliably be obtained for up to 90% of the total distance from the apex (corresponding to the tonotopic region up to from 0 kHz to ~50 kHz in rat, Viberg & Canlon 2004), while the last 10% was too variable due to damage incurred during dissection.
as §3
To further support the conclusions from the functional audiometry data, the loss of outer hair cells in four treatment group was determined by constructing cytocochleograms from histological preparations of cochleae fixed after audiometry on day 14.

[3] = i.p. daily for 14 days after acoustic trauma, same doses as E4

CN1C(=O)COc2c(C(=O)NC3CN4CCC3CC4)cc(Cl)cc21 (stereo not shown) [azasetron HCl, N-(1-azabicyclo[2.2.2]octan-8-yl)-6-chloro-4-methyl-3-oxo-1,4-benzoxazine-8-carboxamide]
reduction of ABR threshold shifts compared to placebo treatment ([1]; day 14, i.p. daily for 14 days after acoustic trauma): 35-60%
ABR threshold recovery from 24 h to day 14 compared to placebo [1, 3]: better ABR threshold recovery
hearing outcomes (ABR thresholds and DPOAE amplitudes) at 14 days after acoustic trauma compared to placebo [1, 3]: better hearing outcomes across all frequencies
ABR threshold shift from baseline to day 14 compared to placebo ([1]; i.p. daily for 14 days from immediately after 121 dB trauma, azasetron HCl 4.22, ondansetron HCl 4, tropisetron HCl 3.5, granisetron HCl 3.8, Tacrolimus 1.5 mg/kg): significantly lower ABR threshold shifts
ABR threshold improvement graded by typical clinical audiological criteria (Furuhashi et al. 2002) ([1]; placebo group only "slight improvement"): marked improvement to complete recovery
mean loss of outer hair cells compared to placebo ([2]; cochleae fixed after audiometry on day 14): significantly lower mean loss
reduction of mean outer hair cell loss compared to placebo treatment ([2]; cochleae fixed at day 14): 50-75%
